From patent US8211919B2, “Amide derivatives as rock inhibitors” (Astellas Pharma Inc., priority 2005, dated 2012)
Structures can show the parent of a compound that is named as a salt.

Assays:
human ROCK I = target: T1, human ROCK I (Homo sapiens, UniProt Q13464); experiment: ROCK enzyme inhibition assay; assay type: biochemical
T1 construct: purchased Caruna Biosciences (sic)
Protocol: ROCK enzyme inhibitory activity of the compounds of the present invention has been assayed as follow. A aqueous solution of Rho kinase substrate MYTP was added to 96-well plate. Following incubation for overnight at 4° C., the plate was blocked by using blocking buffer containing BSA. To the plate was added reaction buffer containing each concentration of compound, suitable concentration of human ROCK I (Caruna Biosciences), ATP, β-glycerol phosphate, EGTA, sodium orthovanadate and DTT, and then the plate was incubated for 1 hour. After washing the plate by washing buffer, anti-phosphothreonin antibody was added to the plate, and then the plate was incubated for 1 hour. After washing the plate by washing buffer again, HRP-conjugated anti-phosphorylated protein antibody was added to the plate, and then the plate was incubated for 1 hour. After washing the plate by washing buffer again, calorimetric substrate TMB microwell peroxidase substrate was added to the plate, and then the plate was incubated for appropriate time. After incubation, H2SO4 was added to the plate to stop the reaction, and then absorbance (450 nm) was measured by using spectromether. Based on the absorbance for each compound, the data is fit using Prism software to obtain a IC50 value.

Male Wistar rats [1] = experiment: Inhibitory effects on phenylephrine-induced elevation of urethral pressure; assay type: in vivo, rat; settings: i.v.; phenylephrine 30 ug/kg i.v.
Source text: To evaluate the usefulness of the compounds of the present invention for urinary dysfunction associated with benign prostatic hyperplasia, we investigated the inhibitory effects of the intravenous administration of the compounds on phenylephrine-induced elevation of the urethral pressure in rats.
Male Wistar rats were anesthetized with urethane (SIGMA, USA). After midline abdominal incision, catheter to measure the urethral pressure (3.5 Fr, Millar, USA) was inserted into the urethra from top of the bladder. After confirming the Phenylephrine (30 ug/kg i.v.)-induced elevation of the urethral pressure, compounds were administered intravenously in increasing doses. Every 5 min after administration of compounds, Phenylephrine (30 ug/kg i.v.) was injected, and the inhibitory effects of compounds on phenylephrine-induced elevation of urethral pressure were evaluated. Each experiment was performed in about 4 animals.

[2] = tested on: Male SD rats, intra-articular MIA in right knee; experiment: Changes in hindlimb weight distribution, monosodium iodoacetate (MIA) osteoarthritis model; assay type: in vivo; settings: Rattus norvegicus, 504 h; oral administration; three weeks after MIA injection; incapacitance tester
Source text: As intra-articular injection of monosodium iodoacetate (MIA) induced human osteoarthritis-like histopathological changes in knee joint, this model would be very useful for the study of human osteoarthritis. Recently, it is reported the clinical scores of the joint pain were closely correrated to the grade of histological findings (J Vet Med Sci 65, 1195, 2003) and this model may be useful for estimation of therapeutic effects of pain with osteoarthritis.
Male SD rats were anesthetized with halothane (Takeda, Japan) and given single intra-articular injection of 1 mg of monosodium iodoacetate (MIA; Sigma, St. Louis, USA) through the infrapatellar ligament of the right knee. MIA was dissolved with physiologic saline and administered in a volume of 50 ul using a 27-gauge, 0.5-inch needle. Three weeks after the injection, hindlimb weight distribution was determined using an incapacitance tester (Linton Instrumentation, Norfork, UK). Rats were allowed to acclimate to the testing apparatus and when stationary, readings were taken over a 5 s period. […] Each group in each experiment were performed in about 8 animals.

Male Wistar rats [3] = experiment: Effects on hindlimb blood flow (laser Doppler); assay type: in vivo, rat; settings: 10 mg/kg p.o.
Source text: As one of the study to clarify the usefulness of the compounds of the present invention for peripheral arterial disease, we conducted a study to evaluate the effects of the compounds on hindlimb blood flow in rats.
Male Wistar rats were anesthetized by intraperitoneal pentobarbital injection (Kanto chemical, Japan) after oral administration of compounds. Rats were placed on a heating plate for subsequent hindlimb blood flow analysis. We measured hindlimb blood flow using a laser Doppler blood flow meter (PeriScan System, Stockholm, Sweden). After the laser Doppler images were recorded, the average perfusion values of both limbs were calculated, and evaluated the effects of compounds on hindlimb blood flow. Each experiment was performed in about 4 animals.

[4] = tested on: Female SD rats, bradykinin injected into knee joint cavity; experiment: Pain alleviation effect on bradykinin induced joint pain model; assay type: in vivo, rat
Protocol: Bradykinin is known to be one of the important pain-related mediators in various pain and especially, sodium hyaluronate which is useful for pain in osteoarthritis is reported to be effective in bradykinin-induced joint pain model. Therefore, we examined effects of compounds in the model.
The making of the joint pain model and evaluation of a level of pain was conducted essentially based on the method described in Folia pharmacol. japon., 92, 17-27 (1988). Female SD rats (6-7 weeks old, Charles River Japan, Inc.) were anesthetized with halothane (Wako). Compound of the above Example were administrated orally to the rat by using oral sonde for rat. 60 min after administration of the compound, saline solution of bradykinin was injected into knee joint cavity of hind limb of rat (3 uM/site/50 ul), and then the response to pain of the rat after administration of bradykinin was observed. Level of pain was scored as five grade point (0-4) as follow: 0: no lameness to lameness for 10 seconds; 1: lameness for 10 to 30 seconds; 2: lift of the limb within 10 seconds or lameness for 31 or more seconds; 3: three-legged gait within 10 seconds followed by lameness; 4: three-legged gait for 10 or more seconds followed by lameness. About 10 rat models were used in each experimental group. It was confirmed that administration of bradykinin leads to response to pain scored as about 3.

T1 sequence (Q13464 whole entry): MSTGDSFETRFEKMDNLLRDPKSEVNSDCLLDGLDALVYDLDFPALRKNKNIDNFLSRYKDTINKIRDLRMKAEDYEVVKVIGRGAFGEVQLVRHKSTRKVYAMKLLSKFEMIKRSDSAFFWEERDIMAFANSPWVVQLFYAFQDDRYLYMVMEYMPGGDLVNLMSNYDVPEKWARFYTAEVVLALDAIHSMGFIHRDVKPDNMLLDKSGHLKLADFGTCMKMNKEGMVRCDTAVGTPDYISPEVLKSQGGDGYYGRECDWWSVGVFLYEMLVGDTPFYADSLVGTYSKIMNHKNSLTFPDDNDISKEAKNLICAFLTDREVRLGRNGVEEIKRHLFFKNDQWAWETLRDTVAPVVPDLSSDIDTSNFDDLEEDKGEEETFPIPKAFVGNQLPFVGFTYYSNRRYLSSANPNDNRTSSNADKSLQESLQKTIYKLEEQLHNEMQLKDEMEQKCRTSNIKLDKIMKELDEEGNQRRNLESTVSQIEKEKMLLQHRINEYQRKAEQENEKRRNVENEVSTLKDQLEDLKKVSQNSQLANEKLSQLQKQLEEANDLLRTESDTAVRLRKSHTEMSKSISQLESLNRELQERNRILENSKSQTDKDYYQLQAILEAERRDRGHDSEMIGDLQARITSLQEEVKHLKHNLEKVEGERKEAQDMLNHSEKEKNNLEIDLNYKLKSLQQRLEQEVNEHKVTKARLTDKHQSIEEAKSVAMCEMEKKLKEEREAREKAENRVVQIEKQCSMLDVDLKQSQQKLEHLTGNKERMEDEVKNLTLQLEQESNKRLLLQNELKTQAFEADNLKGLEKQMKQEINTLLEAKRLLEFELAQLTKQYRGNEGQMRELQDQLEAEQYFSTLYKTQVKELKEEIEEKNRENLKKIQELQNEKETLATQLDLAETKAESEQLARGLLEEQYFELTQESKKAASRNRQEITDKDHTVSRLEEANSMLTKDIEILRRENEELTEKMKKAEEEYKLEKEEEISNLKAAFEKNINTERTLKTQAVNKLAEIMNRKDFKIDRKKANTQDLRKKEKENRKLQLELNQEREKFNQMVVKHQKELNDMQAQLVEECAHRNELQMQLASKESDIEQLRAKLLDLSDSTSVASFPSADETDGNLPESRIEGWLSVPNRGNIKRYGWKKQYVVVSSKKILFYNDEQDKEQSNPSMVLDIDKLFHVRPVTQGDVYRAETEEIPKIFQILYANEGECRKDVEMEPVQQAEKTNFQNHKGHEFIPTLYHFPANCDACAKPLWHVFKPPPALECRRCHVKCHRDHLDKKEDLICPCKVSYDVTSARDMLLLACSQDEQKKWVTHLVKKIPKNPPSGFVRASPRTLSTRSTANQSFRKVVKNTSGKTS

IC50 (human ROCK I) [nM] | SMILES | Inhibition of elevation in urethral pressure ED30 (Male Wistar rats [1]) [mg/kg] | ED50 [2] [mg/kg] | % of increase of blood flow (Male Wistar rats [3]) [%] | pain score ([4]; 32 mg/kg orally, 60 min before bradykinin, grade 0-4, vehicle 2.7) | bradykinin-induced pain responses ([4]; oral administration, dose dependence)
86 | Nc1nccc(-c2ccc3c(c2)CCN3C(=O)[C@@H](N)Cc2ccccc2)n1 [Example 151, 4-{1-[(2S)-2-amino-3-phenylpropanoyl]-2,3-dihydro-1H-indol-5-yl}pyrimidin-2-amine] | <1 |  |  |  | 
240 | C[C@@H](NC(=O)Nc1ccc(-c2ccncc2)cc1)c1ccccc1 [Example 3, 1-[(1R)-1-phenylethyl]-3-[4-(4-pyridinyl)phenyl]urea] |  |  |  |  | 
212 | O=C(Nc1ccc(-c2ccncc2)cc1)C(c1ccccc1)N1CCOCC1 (centres unmarked) [Example 119, 2-morpholin-4-yl-2-phenyl-N-[4-(4-pyridinyl)phenyl]acetamide] |  | < 3 |  |  | 
72 | Nc1nccc(-c2ccc(NC(=O)[C@H](N)c3cccs3)cc2)n1 [Example 155, (2S)-2-amino-N-[4-(2-aminopyrimidin-4-yl)phenyl]-2-(2-thienyl)acetamide] |  |  |  |  | 
42 | Nc1nccc(-c2ccc(NC(=O)[C@H](N)c3ccccc3)cc2)n1 [Example 154, (2R)-2-amino-N-[4-(2-aminopyrimidin-4-yl)phenyl]-2-phenylacetamide] | <1 | < 3 | >130 |  | 
5 | N[C@H](Cc1cccc(F)c1)C(=O)Nc1ccc(-c2ccncc2)cc1 [Example 86, 3-fluoro-N-[4-(4-pyridinyl)phenyl]-D-phenylalaninamide] |  |  | >130 |  | 
25 | O=C(Nc1ccc(-c2ccncc2)cc1)N[C@H](CO)c1ccccc1C(F)(F)F [Example 72, 1-{(1S)-2-hydroxy-1-[2-(trifluoromethyl)phenyl]ethyl}-3-[4-(4-pyridinyl)phenyl]urea] |  |  |  |  | 
10 | N[C@H](Cc1ccccc1)C(=O)Nc1ccc(-c2ccncc2)cc1 [Example 54, (2R)-2-amino-3-phenyl-N-[4-(4-pyridinyl)phenyl]propanamide] |  | < 3 | >130 |  | 
18 | N[C@@H](Cc1ccccc1)C(=O)Nc1ccc(-c2ccncc2)cc1 [Example 53, (2S)-2-amino-3-phenyl-N-[4-(4-pyridinyl)phenyl]propanamide dihydrochloride] |  |  |  |  | 
122 | O=C(Nc1ccc(-c2ccncc2)cc1)N[C@H](CO)c1ccccc1 [Example 4, 1-[(1S)-2-hydroxy-1-phenylethyl]-3-[4-(4-pyridinyl)phenyl]urea] |  | < 3 | >130 |  | 
84 | O=C(Nc1ccc(-c2ccncc2)cc1)N[C@@H](CO)Cc1ccccc1 [Example 73, 1-[(1R)-1-benzyl-2-hydroxyethyl]-3-[4-(4-pyridinyl)phenyl]urea] |  |  |  |  | 
342 | O=C(NCc1ccccc1)Nc1ccc(-c2ccncc2)cc1 [Example 1, 1-benzyl-3-[4-(4-pyridinyl)phenyl]urea] |  |  |  |  | 
53 | N[C@@H](Cc1ccccc1)C(=O)N1CCc2cc(-c3ccncc3)ccc21 [Example 58, (2S)-1-oxo-3-phenyl-1-[5-(4-pyridinyl)-2,3-dihydro-1H-indol-1-yl]-2-propanamine] |  | < 3 |  |  | 
12 | N[C@H](C(=O)Nc1ccc(-c2ccncc2)cc1)c1ccccc1 [Example 109, (2S)-2-amino-2-phenyl-N-[4-(4-pyridinyl)phenyl]acetamide] | <1 |  |  |  | 
21 | CN[C@H](Cc1ccccc1)C(=O)Nc1ccc(-c2ccncc2)cc1 [Example 98, N-alpha-methyl-N-[4-(4-pyridinyl)phenyl]-D-phenylalaninamide] |  | < 3 | >130 |  | 
77 | Cl.O=C(CNc1ccccc1)Nc1ccc(-c2ccncc2)cc1 [Example 26, 2-anilino-N-[4-(4-pyridinyl)phenyl]acetamide hydrochloride] |  |  |  | 1.4 | dose dependently improved
14 | N[C@@H](C(=O)Nc1ccc(-c2ccncc2)cc1)c1ccccc1 [Example 108, (2R)-2-amino-2-phenyl-N-[4-(4-pyridinyl)phenyl]acetamide] |  | < 3 | >130 |  | 
112 | O=C(Nc1ccc(-c2ccncc2)cc1)N[C@H](CO)c1cccs1 [Example 67, 1-[(1R)-2-hydroxy-1-(2-thienyl)ethyl]-3-[4-(4-pyridinyl)phenyl]urea] |  | < 3 | >130 |  | 
